From US11464788B2, “Oligomer-corticosteroid conjugates” (Nektar Therapeutics, priority 2007, dated 2022)
Where two headings read alike, the source gives them in different places.

Key:
[1] = target: T1, glucocorticoid receptors (Rattus norvegicus, UniProt P06536); test: Glucocorticoid binding assay (competitive binding with [6,7-3H]triamcinolone acetonide); settings: displacement of [6,7-3H]triamcinolone acetonide; glucocorticoid receptors from rat brains; 50 mM KH2PO4 pH 7.4, 0° C., 16 hours
T1 sequence (P06536 1-795): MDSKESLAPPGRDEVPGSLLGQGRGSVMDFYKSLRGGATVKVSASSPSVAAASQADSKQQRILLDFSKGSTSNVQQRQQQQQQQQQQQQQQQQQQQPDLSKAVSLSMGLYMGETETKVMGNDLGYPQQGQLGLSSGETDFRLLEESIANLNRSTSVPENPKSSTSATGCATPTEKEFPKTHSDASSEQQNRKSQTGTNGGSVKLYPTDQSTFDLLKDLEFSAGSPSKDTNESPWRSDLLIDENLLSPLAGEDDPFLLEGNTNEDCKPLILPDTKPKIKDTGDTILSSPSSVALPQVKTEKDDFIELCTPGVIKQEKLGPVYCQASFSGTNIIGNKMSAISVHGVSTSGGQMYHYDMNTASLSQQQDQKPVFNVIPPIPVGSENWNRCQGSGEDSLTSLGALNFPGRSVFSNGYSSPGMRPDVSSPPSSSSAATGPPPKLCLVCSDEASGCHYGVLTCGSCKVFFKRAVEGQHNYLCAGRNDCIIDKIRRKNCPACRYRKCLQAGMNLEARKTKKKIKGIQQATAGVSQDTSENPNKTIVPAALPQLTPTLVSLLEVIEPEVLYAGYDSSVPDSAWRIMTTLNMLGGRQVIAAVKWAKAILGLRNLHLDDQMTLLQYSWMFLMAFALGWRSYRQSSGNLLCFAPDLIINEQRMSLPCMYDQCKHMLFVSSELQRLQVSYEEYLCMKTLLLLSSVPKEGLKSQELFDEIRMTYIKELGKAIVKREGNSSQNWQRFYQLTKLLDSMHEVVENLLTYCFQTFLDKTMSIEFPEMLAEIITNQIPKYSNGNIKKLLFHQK
Protocol: The assay was used to determine whether the tested compounds bound to the glucocorticoid binding site and is based on procedures set forth in the literature. […] Int. […] Briefly, using competitive binding of with the radioligand “[6,7-^3H]triamcinolone acetonide” (30-50 Cl/mmol), reactions were carried out in 50 mM KH2PO4 (pH 7.4) containing 10 mM sodium molybdate and 10 mM α-monothioglycerol at 0° C. for 16 hours. The glucocorticoid receptors were obtained from rat brains. The reactions were terminated by rapid vacuum filtration onto glass fiber filters. Radioactively trapped onto the filters is determined and compared to control values. […] A higher IC50 value reflects a weaker binding affinity.

| IC50 [1] | stability of the drug (pH 7.4) | SMILES | also measured |
| --- | --- | --- | --- |
| 1.21 nM | – | CC1(C)O[C@@H]2C[C@H]3[C@@H]4CCC5=CC(=O)C=C[C@]5(C)[C@@]4(F)[C@@H](O)C[C@]3(C)[C@]2(C(=O)CO)O1 [Triamcinolone Acetonide] | – |
| – | many decomposed impurities | C[C@]12CCC(=O)C=C1CC[C@@H]1[C@@H]2C(=O)C[C@@]2(C)[C@H]1CC[C@]2(O)C(=O)CO [Cortisone] | stability of the drug (pH 5.5): stable |
| – | much more stable than cortisone | C[C@]12CCC(=O)C=C1CC[C@@H]1[C@@H]2[C@@H](O)C[C@@]2(C)[C@H]1CC[C@]2(O)C(=O)CO [Hydrocortisone] | – |
| 3.93 nM | – | COCCOCCOCCOCCOCCOCCOCCOC(=O)NN=C1C=C2CCC3C(C(O)CC4(C)C3CCC4(O)C(=O)CO)C2(C)CC1 (centres unmarked) [mPEG7-Hydrocortisone] | – |

| SMILES | IC50 [1] | stability of the drug (pH 7.4) | also measured |
| --- | --- | --- | --- |
| COCCOCCOCCOCCOCCOCCOCCOC(=O)NN=C1C=C2CCC3C(C(=O)CC4(C)C3CCC4(O)C(=O)CO)C2(C)CC1 (centres unmarked) [mPEG7-Cortisone] | 3440 nM | – | cortisone release from the conjugate (hydrolysis) (pH 5.5): able to release cortisone clearly; cortisone release from the conjugate (hydrolysis) (pH 7.4): much slower than that at pH 5.5 |
